Laboratory results taken from the supplement of paper PMC10702517.
± gives the standard deviation.

Experiments:
[1] = chemical recovery into PDMS from spiked human plasma; higher = better extraction; conditions: pooled human plasma, extraction method: PES with PDMS
[2] = chemical recovery by SPE of plasma after PDMS sampling; higher = better extraction; conditions: pooled human plasma, extraction method: HLB SPE of plasma after PES
[3] = chemical recovery from spiked human plasma; higher = better extraction; conditions: pooled human plasma
[4] = extraction method: PES+SPE (3 d PDMS equilibration then HLB SPE)
[5] = extraction method: SPE only (HLB 96-well)
[6] = extraction method: solvent precipitation (ACN + hexane)
[7] = extraction method: SPE only (HLB 96-well), PES comparison experiment
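Wherever chemical recovery by SPE of plasma after PDMS sampling is given: over 400 spiked chemicals quantified by LC-HRMS or GC-HRMS via internal standard calibration, recovery relative to spike mix added to unspiked plasma extract to correct matrix effects.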

chemical recovery into PDMS ([1]; equilibration time (d): 3) [%] | chemical recovery into PDMS ([1]; equilibration time (d): 6) [%] | chemical recovery by SPE of plasma ([2]; equilibration time (d): 1) [%] | chemical recovery by SPE of plasma ([2]; equilibration time (d): 3) [%] | chemical recovery by SPE of plasma ([2]; equilibration time (d): 6) [%] | chemical recovery [3, 4] [%] | chemical recovery [3, 5] [%] | chemical recovery [3, 6] [%] | chemical recovery [3, 7] [%] | SMILES | chemical recovery into PDMS ([1]; equilibration time (d): 1) [%]
67.8 ± 4.7 | 62.3 ± 4.6 | 11.4 ± 8 | 12 ± 2.1 | 11.5 ± 4.2 |  |  |  |  | ClC=C(c1ccc(Cl)cc1)c1ccc(Cl)cc1 [4,4-DDMU] | 
0.844 ± 0.17 | 0.572 ± 0.1 |  | 5.92 ± 1.7 | 10 ± 3.9 | 3.92 ± 0.79 | 3.28 ± 2.1 | 98.6 ± 21 |  | NC(=O)c1ccc(N)cc1 [4-Aminobenzamide] | 0.339 ± 0.59
0.0416 ± 0.072 | 0.0611 ± 0.11 | 60.4 ± 6.4 | 60.3 ± 4.6 | 56.6 ± 5.1 | 47.1 ± 4.1 | 42.5 ± 2 | 64 ± 7.2 | 59.7 ± 7.3 | O=C(O)CCC(=O)c1ccc(F)cc1 [4-Fluorobenzoylpropionic acid] | 
93.2 ± 14 | 108 ± 43 | 1.81 ± 1.4 | 2 ± 0.34 | 1.85 ± 0.12 |  |  |  | 19.6 ± 3.7 | c1cc2c3c(c1)ccc1cccc(c13)C2 [4H-Cyclopenta(def)phenanthrene] | 94.4 ± 32
0.905 ± 0.21 | 1.34 ± 0.43 | 55.2 ± 9.2 | 55.2 ± 5 | 52.3 ± 6.8 | 44.7 ± 2.5 | 41.8 ± 2.6 | 59.3 ± 5 | 52.8 ± 6.1 | Clc1ccc2[nH]nnc2c1 [5-Chlorobenzotriazole] | 0.3 ± 0.043
6.47 ± 1.2 | 8.16 ± 2 | 45.5 ± 4.2 | 42.2 ± 5.6 | 36 ± 2.7 | 54.6 ± 2.9 | 46.3 ± 3 | 58.1 ± 3.9 | 51.7 ± 8.2 | Cc1ccc2[nH]nnc2c1 [5-Methyl-1H-benzotriazole] | 3.14 ± 0.15
28.7 ± 3 | 30.7 ± 1.9 | 6.09 ± 0.59 | 4.96 ± 0.66 | 2.87 ± 0.15 | 42.9 ± 6.9 | 45.6 ± 5.5 | 77.9 ± 3.2 | 50 ± 6 | CCNc1ccc2c(C)cc(=O)oc2c1 [7-(Ethylamino)-4-methylcoumarin] | 26.7 ± 4.1
17.9 ± 2.4 | 18.9 ± 2.1 | 39.4 ± 4.9 | 34.9 ± 3.5 | 28.3 ± 3.2 | 42.6 ± 3.4 |  | 70.4 ± 2 | 53.5 ± 9.9 | Cc1cc(=O)oc2cc(N)ccc12 [7-Amino-4-methylcoumarin] | 12.65 ± 0.075
 | 0.0138 ± 0.079 | 38.5 ± 7.5 | 45.7 ± 5.5 | 40.3 ± 0.48 |  |  |  | 37.4 ± 4.5 | CN(Cc1nc2c(N)nc(N)nc2nc1O)c1ccc(C(=O)N[C@@H](CCC(=O)O)C(=O)O)cc1 [7-Hydroxymethotrexate] | 
1.31 ± 0.36 | 1.45 ± 0.21 | 59.8 ± 8.4 | 60.8 ± 6 | 55.6 ± 7.7 | 47.3 ± 4.9 | 49.1 ± 5.4 | 71.1 ± 3 | 51.2 ± 4.5 | NC(=O)N1c2ccccc2CC(O)c2ccccc21 (stereo unspecified) [10,11-Dihydro-10-hydroxycarbamazepine] | 0.612 ± 0.1
0.00031 ± 0.0019 | 0.00283 ± 0.0035 | 50.8 ± 5.7 | 50.4 ± 4.2 | 48.9 ± 5.7 | 40.1 ± 4.1 | 36.1 ± 3.5 | 71.1 ± 3.3 | 48.7 ± 4.5 | COC[P+](c1ccccc1)(c1ccccc1)c1ccccc1 [(Methoxymethyl)triphenylphosphonium] | 
19.2 ± 3.2 | 21.8 ± 3.6 | 57.8 ± 8.4 | 55.6 ± 1.6 | 44.9 ± 4.3 | 62.8 ± 6 | 47.2 ± 3.6 | 71.9 ± 1.1 | 50.5 ± 5 | O=c1c2ccccc2[nH]c2ccccc12 [Acridone] | 11.4 ± 0.43
79.7 ± 9.8 | 77.5 ± 5.2 |  |  | 0.409 ± 0.71 |  |  |  |  | c1ccc2c(c1)=c1ccc3c4c(ccc=2c14)=c1ccccc1=3 [Indeno(1,2,3-cd)fluoranthene] | 70.5 ± 4
27.6 ± 2.7 | 30.5 ± 2.2 | 5.46 ± 2.7 | 1.87 ± 3.2 |  |  |  |  |  | C=CC[C@@H]1/C=C(\C)C[C@H](C)C[C@H](OC)[C@H]2O[C@@](O)(C(=O)C(=O)N3CCCC[C@H]3C(=O)O[C@H](/C(C)=C/[C@@H]3CC[C@@H](O)[C@H](OC)C3)[C@H](C)[C@@H](O)CC1=O)[C@H](C)C[C@@H]2OC [Tacrolimus] | 23.3 ± 2.5

SMILES | chemical recovery into PDMS ([1]; equilibration time (d): 3) [%] | chemical recovery into PDMS ([1]; equilibration time (d): 6) [%] | chemical recovery by SPE of plasma ([2]; equilibration time (d): 1) [%] | chemical recovery by SPE of plasma ([2]; equilibration time (d): 3) [%] | chemical recovery by SPE of plasma ([2]; equilibration time (d): 6) [%] | chemical recovery [3, 4] [%] | chemical recovery [3, 5] [%] | chemical recovery [3, 6] [%] | chemical recovery [3, 7] [%] | chemical recovery into PDMS ([1]; equilibration time (d): 1) [%]
C[C@]12CCC(=O)C=C1CC[C@@H]1[C@@H]2CC[C@]2(C)C(=O)CC[C@@H]12 [4-Androstene-3,17-dione] | 43.4 ± 1.7 | 42.6 ± 3.7 | 1.37 ± 2.1 | 4.32 ± 1.8 | 1.36 ± 1.8 |  |  |  | 49.8 ± 8.7 | 39.8 ± 3
Nc1ccc(Cl)cc1 [4-Chloroaniline] | 5.92 ± 5.1 | 5.47 ± 3.5 | 11.4 ± 2.3 | 14.6 ± 1.5 | 9.71 ± 1.7 |  | 16.4 ± 6.2 |  |  | 6.69 ± 4.3
O=[N+]([O-])c1cc[n+]([O-])c2ccccc12 [4-Nitroquinoline-1-oxide] | 14.7 ± 1.4 | 17 ± 0.8 | 15.1 ± 2.7 | 18.4 ± 2.5 | 13.5 ± 1.6 |  |  |  | 42.3 ± 8.4 | 14.2 ± 0.49
C[C@]12CC(=O)[C@H]3[C@@H](CCC4=CC(=O)CC[C@@]43C)[C@@H]1CC[C@@H]2O [11-Ketotestosterone] |  |  | 34.3 ± 3.9 | 30.6 ± 2.7 | 21.9 ± 3.6 |  |  |  | 50.5 ± 4.8 | 4.7 ± 9.7
C[C@]12CCC(=O)C=C1CC[C@@H]1[C@@H]2CC[C@@]2(C)[C@H]1CC[C@]2(C)O [17alpha-Methyltestosterone] | 36.4 ± 2.9 | 37.6 ± 0.76 | 7.99 ± 6.9 | 12.4 ± 1.8 | 7.08 ± 1.2 |  |  |  |  | 34.6 ± 2.1
C/C(=N\C#N)N(C)Cc1ccc(Cl)nc1 [Acetamiprid] | 15.7 ± 2.8 | 17.2 ± 2.9 | 46.9 ± 3.9 | 42.3 ± 4.8 | 33.6 ± 4 | 51.9 ± 4.8 | 40.7 ± 3 | 75 ± 2.6 | 56.8 ± 6.8 | 9.86 ± 0.62
ClC1=C(Cl)C2(Cl)C3C4C=CC(C4)C3C1(Cl)C2(Cl)Cl (stereo unspecified) [Aldrin] | 90.4 ± 12 | 99.8 ± 12 | 1.3 ± 0.86 | 1.34 ± 0.14 | 1.4 ± 0.28 |  | 1.53 ± 0.48 |  | 18.4 ± 4 | 84.1 ± 2.4
C=CCC1=C(C)C(OC(=O)C2C(C=C(C)C)C2(C)C)CC1=O (stereo unspecified) [Allethrin] | 38.6 ± 3.5 | 37.9 ± 1.6 |  | 0.042 ± 0.073 |  |  |  |  | 34.6 ± 6.6 | 36 ± 1.6
CC(C1CC1)C(O)(Cn1cncn1)c1ccc(Cl)cc1 (stereo unspecified) [Cyproconazole] | 41.6 ± 3.6 | 41 ± 0.84 | 2.91 ± 0.36 | 2.32 ± 0.46 | 1.25 ± 0.088 |  |  |  |  | 37.7 ± 1.8
CO/N=C(/C1=NOCCO1)c1ccccc1Oc1ncnc(Oc2ccccc2Cl)c1F [Fluoxastrobin] | 50.3 ± 4.7 | 47.2 ± 5.7 | 0.73 ± 1.3 | 0.629 ± 1.1 | 0.277 ± 0.48 |  |  |  |  | 45.4 ± 3.9
ClC1=C(Cl)C2(Cl)C3C4OC4C(Cl)C3C1(Cl)C2(Cl)Cl (stereo unspecified) [Heptachlorepoxide] | 99.4 ± 13 |  | 1.72 ± 1.8 | 2.34 ± 0.82 | 1.89 ± 0.21 |  |  |  |  | 
Cl[C@H]1[C@H](Cl)[C@@H](Cl)[C@H](Cl)[C@@H](Cl)[C@@H]1Cl [beta-HCH] | 80.5 ± 10 | 77.1 ± 5.9 |  |  |  | 192 ± 11 |  | 33.3 ± 5.6 | 26.6 ± 2.1 | 
Cl[C@H]1[C@H](Cl)[C@@H](Cl)[C@@H](Cl)[C@H](Cl)[C@H]1Cl [gamma-HCH] | 57.4 ± 18 | 58.6 ± 18 |  |  |  |  |  | 26.2 ± 8.1 | 9.76 ± 0.99 | 
